For 61 compounds, EC50 results are on record in BindingDB's records for doi:10.7270/Q2251GJ9 (The Scripps Research Institute Molecular Screening Center, 2007).

Molecules are shown by their SMILES. Where a name gives a salt, the structure may show the parent alone. Where only a bound is given, the exact number is not on record here.

As a reminder, the EC50 is the concentration that produces a half-maximal response. A lower EC50 goes with a more potent agent.

In one test the target is Sphingosine 1-phosphate receptor 1 (Homo sapiens, UniProt P21453). Nature of the test: S1P1 receptor agonists, dose response, cell-based, agonist mode, 60K MLSMR set (AID 468).
Sphingosine 1-phosphate receptor 1, sequence (P21453 whole entry): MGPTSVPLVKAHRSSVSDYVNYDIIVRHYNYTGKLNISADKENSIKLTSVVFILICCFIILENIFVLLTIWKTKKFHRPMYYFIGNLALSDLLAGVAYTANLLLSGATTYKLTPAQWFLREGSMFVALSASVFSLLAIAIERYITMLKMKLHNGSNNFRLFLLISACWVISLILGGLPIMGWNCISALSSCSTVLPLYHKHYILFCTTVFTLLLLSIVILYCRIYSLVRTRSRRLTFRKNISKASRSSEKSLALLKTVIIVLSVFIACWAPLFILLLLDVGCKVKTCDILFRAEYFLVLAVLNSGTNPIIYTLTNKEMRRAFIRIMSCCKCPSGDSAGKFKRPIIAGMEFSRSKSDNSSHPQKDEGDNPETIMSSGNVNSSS
Conditions: not given
As to `c1ccc2c(c1)oc1c(N3CCN(Cc4ccc5c(c4)OCO5)CC3)ncnc12`, the EC50 amounted to 6.14 µM.
`COC(=O)C1=CN(CCCN2CCCC2=O)C=C(C(=O)OC)C1c1ccccc1C(F)(F)F` came in with an EC50 of over 95 µM.
On the same count and under the same terms, the figure for `CCC(NC(=O)Nc1nnc(C(F)(F)F)s1)(C(F)(F)F)C(F)(F)F` is over 95 µM; for `Cn1ncnc2c(=O)n(C)c(=O)nc1-2` it is 1.4 µM.
`Oc1ccc(-c2nc(-c3ccc(O)c(O)c3)cs2)cc1` returned an EC50 of 12 µM. Compared with the last compound, the EC50 is about 8.6-fold higher.
Still for that read-out and setting: the figure for `CCC1CCCCN1C(=O)CSc1nnc(-c2c[nH]c3ccccc23)o1` (stereo unspecified) is 5.9 µM.
Compound `O=C(CSc1nnc(-c2c[nH]c3ccccc23)o1)N1c2ccccc2CCc2ccccc21` showed an EC50 of 7.07 µM.
Turning to `O=C(Nc1ccc(N2CCCCC2)c(Cl)c1)c1nnc[nH]1`, the response was half-maximal at 0.857 µM (EC50).
Same read-out and setting: to `COc1ccc2[nH]c(=O)c3c(c2c1)OC(C)(C)C=C3` belongs 4.51 µM.
The same measure, in the same setting: the figure for `O=C(CSc1nnc(-c2c[nH]c3ccccc23)o1)N(Cc1ccccc1)c1ccc(F)cc1` is 1.02 µM; for `Oc1c(Cl)cc(Cl)cc1Sc1cc(Cl)cc(Cl)c1O` it is 1.02 µM.
The same measure, in the same setting: to `Cc1ccc2[nH]c3c(N4CCN(Cc5ccc6c(c5)OCO6)CC4)ncnc3c2c1` belongs over 30 µM.
Compound `Fc1ccc2[nH]c3c(N4CCN(c5ccccc5)CC4)ncnc3c2c1` showed a 50% effective concentration (EC50) of over 3 µM.
On the same count and under the same terms, the figure for `CC(C)OCCCNc1ncnc2c1[nH]c1ccc(F)cc12` is 4.41 µM; for `c1ccc(CSc2nnc(-c3c[nH]c4ccccc34)o2)cc1` it is 1.95 µM; for `O=C(Cc1c[nH]c2ccccc12)N1CCc2ccccc21` it is 9.43 µM.
On the same count and under the same terms, to `Cc1cc(C(=O)CSc2nnc(-c3ccccc3)n2-c2ccccc2)c(C)n1-c1nnc[nH]1` belongs 5.27 µM.
Still for that read-out and setting: to `CN1/C(=C/C(=O)c2nc(S(C)(=O)=O)ncc2Cl)C(C)(C)c2ccccc21` belongs 8.79 µM; to `CCCCOC(=O)c1[nH]c2c(c1C)C(=O)CC(c1cc(OC)c(OC)c(OC)c1)C2` (stereo unspecified), 4.19 µM; to `CCc1ccc(N(CC)c2ncnc3nc[nH]c23)cc1`, 6.03 µM.
`CCOC(=O)/C=C/S(=O)(=O)c1ccc(NC(C)=O)cc1` had an EC50 of over 3 µM.
On the same count and under the same terms, the figure for `Cc1ccc(-c2n[nH]c(=S)n2C)cc1` is over 95 µM; for `Clc1ccc(NCn2cncn2)nc1` it is over 95 µM; for `CCc1oc2ccccc2c1C(=O)c1cc(Br)c(O)c(Br)c1` it is 5.94 µM.
The same measure, in the same setting: the figure for `CC1=NC(=O)NC(c2ccc(Cl)cc2)C1C(=O)OCc1ccc2c(c1)OCO2` (stereo unspecified) [1,3-benzodioxol-5-ylmethyl 4-(4-chlorophenyl)-6-methyl-2-oxidanylidene-3,4-dihydro-1H-pyrimidine-5-carboxylate] is over 0.03 µM; for `CC1=NC(=O)NC(c2ccc(F)cc2)C1C(=O)OCc1ccc2c(c1)OCO2` (stereo unspecified) [1,3-benzodioxol-5-ylmethyl 4-(4-fluorophenyl)-6-methyl-2-oxidanylidene-3,4-dihydro-1H-pyrimidine-5-carboxylate] it is 0.437 µM; for `CC1=NC(=O)NC(c2ccccc2)C1C(=O)OCc1ccc2c(c1)OCO2` (stereo unspecified) [1,3-benzodioxol-5-ylmethyl 6-methyl-2-oxidanylidene-4-phenyl-3,4-dihydro-1H-pyrimidine-5-carboxylate] it is 1.84 µM.
Same read-out and setting: the figure for `O=C(Nc1ccc(OC(F)F)c(Cl)c1)Nc1ccc2c(c1)OCO2` [1-(1,3-benzodioxol-5-yl)-3-[3-chloro-4-(difluoromethoxy)phenyl]urea] is 7.77 µM; for `Cc1cccc(-c2nc(CSCC(=O)N3CCN(Cc4ccc5c(c4)OCO5)CC3)c(C)o2)c1` [1-(1,3-benzodioxol-5-ylmethyl)-4-[({[5-methyl-2-(3-methylphenyl)-1,3-oxazol-4-yl]methyl}thio)acetyl]piperazine] it is 5.16 µM; for `Cc1nn(-c2nc3ccccc3s2)c(N)c1-c1ccccc1` [1-(1,3-benzothiazol-2-yl)-3-methyl-4-phenyl-1H-pyrazol-5-amine] it is 0.415 µM.
As for `C=CCn1c(C)cc(C(=O)CSc2nc3ccccc3o2)c1C` [1-(1-allyl-2,5-dimethyl-pyrrol-3-yl)-2-(1,3-benzoxazol-2-ylthio)ethanone], the concentration for a half-maximal effect (EC50) was 9.52 µM. This EC50 lies about 23-fold higher than the previous one.
The same measure, in the same setting: the figure for `O=C(CCN1CCc2ccccc2CC1)c1ccc2c(c1)OCCO2` [1-(2,3-dihydro-1,4-benzodioxin-6-yl)-3-(1,2,4,5-tetrahydro-3-benzazepin-3-yl)-1-propanone;hydrochloride] is 10.5 µM.
In turn, `COc1ccc(-n2c(O)cc(Sc3nnc[nH]3)c2O)c(OC)c1` [1-(2,4-dimethoxyphenyl)-3-(1H-1,2,4-triazol-5-ylthio)pyrrolidine-2,5-dione] gave an EC50 of 16.7 µM.
Compound `CCOc1ccc(S(=O)(=O)N2CCN(c3ccc(C)cc3C)CC2)cc1` [1-(2,4-dimethylphenyl)-4-(4-ethoxyphenyl)sulfonyl-piperazine] gave an EC50 of over 10 µM.
`O=S(=O)(c1cccs1)N1CCN(CC(O)COc2cc(Cl)ccc2Cl)CC1` (stereo unspecified) [1-(2,5-dichlorophenoxy)-3-(4-thiophen-2-ylsulfonyl-1-piperazinyl)-2-propanol] returned an EC50 of 4.2 µM.
On the same count and under the same terms, to `Cc1cc(C(=O)CSc2nnc(-c3cccs3)o2)c(C)n1-c1ccccc1` [1-(2,5-dimethyl-1-phenyl-3-pyrrolyl)-2-[(5-thiophen-2-yl-1,3,4-oxadiazol-2-yl)thio]ethanone] belongs 4.66 µM; to `Cc1cc(C(=O)CSc2nnnn2-c2ccc(O)cc2)c(C)n1Cc1ccc2c(c1)OCO2` [1-(2,5-dimethyl-1-piperonyl-pyrrol-3-yl)-2-[[1-(4-hydroxyphenyl)tetrazol-5-yl]thio]ethanone], 5.91 µM; to `COc1ccccc1N=C(N)Nc1nc(CSc2ccc(C)cc2)cc(=O)[nH]1` [1-(2-methoxyphenyl)-2-[6-[[(4-methylphenyl)thio]methyl]-4-oxo-1H-pyrimidin-2-yl]guanidine], 7.29 µM.
Consider `Cc1occc1C(=O)N1CCN(c2ccc(Cl)c(Cl)c2)CC1` [1-(3,4-dichlorophenyl)-4-(2-methyl-3-furoyl)piperazine], for which the response was half-maximal at 4.47 µM (EC50).
`COc1ccc(S(=O)(=O)N2CCN(c3ccc(C)cc3C)CC2)cc1OC` [1-(3,4-dimethoxyphenyl)sulfonyl-4-(2,4-dimethylphenyl)piperazine] displayed an EC50 of 6.58 µM.
The same measure, in the same setting: to `COc1cc(-c2noc(C3CCCN(S(=O)(=O)c4cccc(Cl)c4)C3)n2)cc(OC)c1OC` (stereo unspecified) [1-(3-Chloro-benzenesulfonyl)-3-[3-(3,4,5-trimethoxy-phenyl)-[1,2,4]oxadiazol-5-yl]-piperidine] belongs 3.83 µM.
In turn, `COc1ccc(C(=O)C(CN2CCOCC2)c2ccccc2)cc1F` (stereo unspecified) [1-(3-Fluoro-4-methoxy-phenyl)-3-morpholin-4-yl-2-phenyl-propan-1-one] gave an EC50 of 22.5 µM.
Same read-out and setting: to `COc1cccc(NC(=O)Nc2nnc(N3CCCCC3C)s2)c1` (stereo unspecified) [1-(3-methoxyphenyl)-3-[5-(2-methyl-1-piperidinyl)-1,3,4-thiadiazol-2-yl]urea] belongs 8.72 µM; to `CCCS(=O)(=O)c1nnnn1-c1cccc(OC)c1` [1-(3-methoxyphenyl)-5-(propylsulfonyl)-1H-tetrazole], 2.82 µM; to `CCOc1ccc(S(=O)(=O)n2cnc3cc(C)c(C)cc32)cc1` [1-(4-Ethoxy-benzenesulfonyl)-5,6-dimethyl-1H-benzoimidazole], 6.73 µM.
Still for that read-out and setting: to `N#Cc1ccc(NC(=O)Nc2ccc(Cl)cc2)cc1` [1-(4-chlorophenyl)-3-(4-cyanophenyl)urea] belongs 9.38 µM.
For the compound `Cc1cccc(NC(=O)Nc2ccc(C#N)cc2)n1` [1-(4-cyanophenyl)-3-(6-methyl-2-pyridinyl)urea], the EC50 is over 30 µM.
Still for that read-out and setting: to `O=C(c1ccc(F)cc1)C(CN1CCOCC1)c1ccccc1` (stereo unspecified) [1-(4-fluorophenyl)-3-(4-morpholinyl)-2-phenyl-1-propanone;hydrochloride] belongs 17.9 µM.

The same test, now with this note: inactive by the depositor's call.
For the compound `CC1=CC(C)(C)Nc2ccc(OC(=O)c3ccco3)cc21`, the EC50 came to 13.3 µM.
On the same count and under the same terms, to `O=S1(=O)C=C(Sc2nnc(-c3ccccc3)o2)c2ccccc21` belongs 20.6 µM; to `Cc1n[nH]c(C)c1N1C(=O)c2cccc3c(N4CCCCCC4)ccc(c23)C1=O`, 13.8 µM.
`CN1c2ccccc2C(C)(C)C12C=Cc1cc(O)ccc1O2` (stereo unspecified) [1',3',3'-trimethyl-6-spiro[1-benzopyran-2,2'-indole]ol] returned an EC50 of 13.1 µM. This EC50 and that of the compound before are within 1.5-fold of each other.
Compound `CC(C)C(c1nnnn1Cc1ccccc1)N(Cc1ccco1)Cc1cccs1` (stereo unspecified) [1-(1-benzyltetrazol-5-yl)-N-(furan-2-ylmethyl)-2-methyl-N-(thiophen-2-ylmethyl)propan-1-amine] gave an EC50 of 51.2 µM.
Same read-out and setting: to `Cc1ccc(-n2ncc3c(N4CCCC(C)C4)ncnc32)c(C)c1` (stereo unspecified) [1-(2,4-dimethylphenyl)-4-(3-methylpiperidin-1-yl)-1H-pyrazolo[3,4-d]pyrimidine] belongs 11 µM; to `Cc1ccc(C)c(-n2nnnc2Sc2nnnn2-c2ccccc2)c1` [1-(2,5-dimethylphenyl)-5-(1-phenyltetrazol-5-yl)sulfanyltetrazole], 12.8 µM; to `CC1CCCC(C)N1C(=O)CN1CCN(c2nc(-c3ccc(F)cc3)cs2)CC1` (stereo unspecified) [1-(2,6-Dimethyl-piperidin-1-yl)-2-{4-[4-(4-fluoro-phenyl)-thiazol-2-yl]-piperazin-1-yl}-ethanone], 12.7 µM.
The same measure, in the same setting: to `CCN(CC)C(=O)C1CCN(S(=O)(=O)c2ccc3oc4ccccc4c3c2)CC1` [1-(2-dibenzofuranylsulfonyl)-N,N-diethyl-4-piperidinecarboxamide] belongs 31.7 µM; to `CC(C)Cn1c(=O)c(C(=O)Nc2ccccc2S(N)(=O)=O)c(O)c2ccccc21` [1-(2-methylpropyl)-2-oxidanyl-4-oxidanylidene-N-(2-sulfamoylphenyl)quinoline-3-carboxamide], 13.4 µM; to `O=C1CC(N2CCN(C/C=C/c3ccccc3)CC2)C(=O)N1CCc1ccccc1` (stereo unspecified) [1-(2-phenylethyl)-3-[4-[(E)-3-phenylprop-2-enyl]-1-piperazinyl]pyrrolidine-2,5-dione], 20 µM.
As for `CCOC(=O)C1CCN(c2ncnc3c2oc2ccccc23)CC1` [1-(4-benzofuro[3,2-d]pyrimidinyl)-4-piperidinecarboxylic acid ethyl ester], a half-maximal effect (EC50) was put at 12 µM.
Still for that read-out and setting: to `CCCCOc1ccc(S(=O)(=O)n2c(C)nc3ccccc32)cc1` [1-(4-butoxyphenyl)sulfonyl-2-methyl-benzimidazole] belongs 23.2 µM.
